{
  "source": "patent US12433903B2",
  "about": "(priority 2021, dated 2025)",
  "target": "T1, UGT1A4 (Homo sapiens, UniProt P22310)",
  "T1 construct": "purchased BD Biosciences",
  "T1 sequence (P22310 29-534)": "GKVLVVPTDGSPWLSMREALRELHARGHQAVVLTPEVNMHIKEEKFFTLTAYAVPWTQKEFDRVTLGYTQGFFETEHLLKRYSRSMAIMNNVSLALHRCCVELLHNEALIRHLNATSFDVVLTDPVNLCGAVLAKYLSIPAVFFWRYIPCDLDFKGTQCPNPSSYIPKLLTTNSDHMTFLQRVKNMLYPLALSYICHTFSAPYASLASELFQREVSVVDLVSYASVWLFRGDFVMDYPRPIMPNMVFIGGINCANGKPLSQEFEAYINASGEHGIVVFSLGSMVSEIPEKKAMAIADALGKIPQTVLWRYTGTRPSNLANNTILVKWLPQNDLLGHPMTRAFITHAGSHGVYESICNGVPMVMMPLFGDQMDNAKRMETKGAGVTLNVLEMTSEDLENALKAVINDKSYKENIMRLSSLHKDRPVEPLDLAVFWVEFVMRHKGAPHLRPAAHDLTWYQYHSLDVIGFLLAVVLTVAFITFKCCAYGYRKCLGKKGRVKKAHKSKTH",
  "test": "UGT reaction phenotyping, UGT1A4",
  "assay_type": "in vitro ADME",
  "conditions": "glucuronide formed from trifluoperazine 1 μM, printed in the half-life column with *",
  "from_the_text": "Experimental Summary: UGT Reaction Phenotyping (7 Isoforms).",
  "data": [
    {"smiles": "C[N+]1([C@@H]2O[C@H](C(=O)[O-])[C@@H](O)[C@H](O)[C@H]2O)CCN(CCCN2c3ccccc3Sc3ccc(C(F)(F)F)cc32)CC1", "note": "[Trifluoperazine Glucuronide]", "values": [
      {"measurement": "average peak area ratio at 60 min/average peak area ratio at 0 min", "value": "*6.38"}
    ]}
  ]
}
